Data from PMC7113773 (Antiviral Research, 2014).

Test system: NA (H275Y), OSV-resistant mutant of influenza H1N1 (A/California/04/2009)
Type: biochemical, influenza A virus

Structure (SMILES): Cc1cc2c(c(=S)[nH]1)C(=O)O/C2=C\c1c[nH]c2ccc(F)cc12 [Compound 15a, (Z)-1-((5-Fluoro-1H-indol-3-yl)methylene)-6-methyl-4-thioxo-4,5-dihydrofuro[3,4-c]pyridin-3(1H)-one]
- function of oseltamivir-resistant NA (H275Y): suppressed
